Like-named read-outs stand apart in the source and are kept apart here.
Assays:
[1] = system: Corynebacterium aquaticum AKU611; assay: Biolog System assimilation of carbon sources; type: cell-based; details: 96-well plate, BUGM+B medium, 24 hours at 28° C.
Description: Each well contained one of the 96 types of carbon sources in BUGM+B medium (Biolog Universal Growth Media+Blood) (Biolog Inc.).

levodione reductase = molecular target: T1, levodione reductase (Leifsonia aquatica, UniProt Q9LBG2); type: biochemical, Corynebacterium aquaticum AKU611
T1 construct: The LR is isolated and purified from the cell-free extract of disrupted cells; made in house; host or cells: Corynebacterium aquaticum AKU611 (FERM BP-6448); This is the natural producer and there was no recombinant expression; The enzyme was purified by ammonium sulfate precipitation and DEAE-Sephacel, alkyl Superose and MONO Q chromatography
T1 sequence (Q9LBG2 1-267): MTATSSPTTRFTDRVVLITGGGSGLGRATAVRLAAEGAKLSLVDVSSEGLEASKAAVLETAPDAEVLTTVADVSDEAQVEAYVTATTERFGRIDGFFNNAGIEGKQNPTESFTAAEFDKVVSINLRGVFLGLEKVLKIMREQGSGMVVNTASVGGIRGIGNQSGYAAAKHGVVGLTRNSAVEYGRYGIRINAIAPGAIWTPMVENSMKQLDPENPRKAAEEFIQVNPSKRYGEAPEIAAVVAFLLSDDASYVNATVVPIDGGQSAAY
Protocol: A basal reaction mixture having a total volume of 500 μl includes 100 μl of 1 M potassium phosphate buffer (pH 7.0), 20 μl of 8 mM NADH in 0.2 mM KOH, 10-40 μl of the enzyme solution (i.e., levodione reductase), and water up to a total of 500 μl . This reaction mixture was incubated for 1 minute at 37 ° C. Then, 2 μl of 0.5 M levodione solution were added to give a final concentration of 2 mM, and the whole mixture was incubated for 1 minute at 37 ° C. The levodione reductase enzyme activity was monitored with the decrease of the absorbance of NADH at 340 nm.

[2] = Table 4-1, + 3 mM NaCl, metal 100 mM
[3] = Table 4-1, + 3 mM NaCl, metal 200 mM
[4] = Table 4-1, + 3 mM NaCl, metal 400 mM
[5] = Table 4-1, + 3 mM NaCl, metal 800 mM
[6] = Table 4-1, + 3 mM NaCl, metal 1600 mM
[7] = Table 4-1, + 3 mM NaCl, metal 1800 mM
[8] = Table 4-1, + 3 mM NaCl, metal 2000 mM
[9] = Table 4-1, + 3 mM NaCl, metal 2500 mM
[10] = Table 4-1, + 3 mM NaCl, metal 3000 mM

With `OC[C@@H](O)C(O)[C@H](O)CO` [B2, D-arabitol] the Assimilation [1] was “+”.
For `CO[C@@H]1O[C@H](CO)[C@@H](O)[C@H](O)[C@H]1O` [D1, β-methyl-D-glucoside], the Assimilation [1] was “−”.
With `NCCCCN` [G10, Putrscine] the Assimilation [1] was “−”.
With Glycogen [A5] the Assimilation [1] was “−”.
`OC[C@@]12OC[C@@H](O1)[C@@H](O)[C@@H](O)[C@@H]2O` [D9, Sedoheputulosan] was tested, and the Assimilation [1] was “−”.
TWEEN ® 40 [A8] was tested, and the Assimilation [1] was “+”.
In the case of Dextrin [A4], the Assimilation [1] is reported as “−”.
In the case of `OC[C@H]1O[C@@H]2O[C@H]3[C@H](O)[C@@H](O)[C@@H](O[C@H]4[C@H](O)[C@@H](O)[C@@H](O[C@H]5[C@H](O)[C@@H](O)[C@@H](O[C@H]6[C@H](O)[C@@H](O)[C@@H](O[C@H]7[C@H](O)[C@@H](O)[C@@H](O[C@H]1[C@H](O)[C@H]2O)O[C@@H]7CO)O[C@@H]6CO)O[C@@H]5CO)O[C@@H]4CO)O[C@@H]3CO` [A2, α-cyclodextrin], the Assimilation [1] is reported as “−”.
`C[C@H](O)C(=O)O` [F3, L-lactic acid] was tested, and the Assimilation [1] was “−”.
`[Cl-].[K+]` [KCl] was tested, and the “Relative Activity” value (levodione reductase; Table 4-2, metal 200 mM) was 11.5%, the “Relative Activity” value (levodione reductase; Table 4-2, metal 400 mM) was 22.2% and the “Relative Activity” value (levodione reductase; Table 4-2, metal 800 mM) was 40.5%. For the same molecule, the “Relative Activity” value (levodione reductase; Table 4-2, metal 1600 mM) was 45.3%, the “Relative Activity” value (levodione reductase; Table 4-2, metal 1800 mM) was 33.5% and the “Relative Activity” value (levodione reductase; Table 4-2, metal 2000 mM) was 28.4%. For the same molecule, the “Relative Activity” value (levodione reductase; Table 4-2, metal 2500 mM) was 25.9% and the “Relative Activity” value (levodione reductase; Table 4-2, metal 3000 mM) was 25.2%.
For `OC[C@H]1O[C@H](O[C@H]2O[C@H](CO)[C@@H](O)[C@H](O)[C@H]2O)[C@H](O)[C@@H](O)[C@@H]1O` [E2, D-trehalose], the Assimilation [1] was “−”.
For `O=C(CO)[C@@H](O[C@H]1O[C@H](CO)[C@@H](O)[C@H](O)[C@H]1O)[C@H](O)[C@H](O)CO` [E3, Turanose], the Assimilation [1] was “+”.
For `[Cl-].[Na+]` [NaCl], the “Relative Activity” value (levodione reductase; Table 4-1, Tris-HCl pH 7.5, metal 3 mM) was 0.4%, the “Relative Activity” value (levodione reductase; Table 4-2, metal 100 mM) was 4.2% and the “Relative Activity” value (levodione reductase; Table 4-2, metal 200 mM) was 7.7%. For the same molecule, the “Relative Activity” value (levodione reductase; Table 4-2, metal 400 mM) was 19.7%, the “Relative Activity” value (levodione reductase; Table 4-2, metal 800 mM) was 35.9% and the “Relative Activity” value (levodione reductase; Table 4-2, metal 1600 mM) was 75.3%. For the same molecule, the “Relative Activity” value (levodione reductase; Table 4-2, metal 1800 mM) was 62.8%, the “Relative Activity” value (levodione reductase; Table 4-2, metal 2000 mM) was 62.8% and the “Relative Activity” value (levodione reductase; Table 4-2, metal 2500 mM) was 53.9%. The “Relative Activity” value (levodione reductase; Table 4-2, metal 3000 mM) was 34.1%.
In the case of `CO[C@H]1O[C@H](CO)[C@@H](O)[C@H](O)[C@H]1O` [C12, α-methyl-D-glucoside], the Assimilation [1] is reported as “−”.
For `[Cl-].[Cs+]` [CsCl], the “increase of enzyme activity” value (levodione reductase; 1.8 M CsCl) was “about 250 fold”, the “Relative Activity” value (levodione reductase; [2]) was 5.9% and the “Relative Activity” value (levodione reductase; [3]) was 14.3%. The “Relative Activity” value (levodione reductase; [4]) was 28.3%, the “Relative Activity” value (levodione reductase; [5]) was 48.1% and the “Relative Activity” value (levodione reductase; [6]) was 71.4%. For the same molecule, the “Relative Activity” value (levodione reductase; [7]) was 100%, the “Relative Activity” value (levodione reductase; [8]) was 86.8% and the “Relative Activity” value (levodione reductase; [9]) was 88.4%. The “Relative Activity” value (levodione reductase; [10]) was 88.0%.
In the case of `O=P(O)(O)OCC(O)CO` (racemic) [H12, DL-α-glycerol phosphate], the Assimilation [1] is reported as “−”.
In the case of `OC[C@H]1O[C@H](OC[C@H]2O[C@H](O[C@]3(CO)O[C@H](CO)[C@@H](O)[C@@H]3O)[C@H](O)[C@@H](O)[C@@H]2O)[C@H](O)[C@@H](O)[C@H]1O` [D5, D-raffinose], the Assimilation [1] is reported as “+”.
With `OC[C@H]1O[C@H](OC[C@H]2OC(O)(CO)[C@@H](O)[C@@H]2O)[C@H](O)[C@@H](O)[C@@H]1O` (stereo partly shown) [D3, Palatinose] the Assimilation [1] was “+”.
For `COC1OC(CO)C(O)C(O)C1O` [C10, α-methyl-D-galactoside], the Assimilation [1] was “−”.
For `O=C1CC[C@@H](C(=O)O)N1` [G8, L-pyloglutamic acid], the Assimilation [1] was “−”.
`Cl.N` [NH4Cl] was tested, and the “Relative Activity” value (levodione reductase; Table 4-2, metal 100 mM) was 6.4%, the “Relative Activity” value (levodione reductase; Table 4-2, metal 200 mM) was 21.3% and the “Relative Activity” value (levodione reductase; Table 4-2, metal 400 mM) was 39.3%. For the same molecule, the “Relative Activity” value (levodione reductase; Table 4-2, metal 800 mM) was 67.1%, the “Relative Activity” value (levodione reductase; Table 4-2, metal 1600 mM) was 100% and the “Relative Activity” value (levodione reductase; Table 4-2, metal 1800 mM) was 75.3%.
In the case of `[Cl-].[Rb+]` [RbCl], the “increase of enzyme activity” value (levodione reductase; 3 M RbCl) is reported as “about 250 fold”, the “Relative Activity” value (levodione reductase; [2]) is reported as 6.4% and the “Relative Activity” value (levodione reductase; [3]) is reported as 7.5%. The “Relative Activity” value (levodione reductase; [4]) was 23.3%, the “Relative Activity” value (levodione reductase; [5]) was 32.6% and the “Relative Activity” value (levodione reductase; [6]) was 66.4%. For the same molecule, the “Relative Activity” value (levodione reductase; [7]) was 65.1%, the “Relative Activity” value (levodione reductase; [8]) was 93.2% and the “Relative Activity” value (levodione reductase; [9]) was 93.3%. For the same molecule, the “Relative Activity” value (levodione reductase; [10]) was 100%.
